This is an account of results in article PMC3316592, “Functional Analysis of General Odorant Binding Protein 2 from the Meadow Moth, Loxostege sticticalis L. (Lepidoptera: Pyralidae)” (PLoS ONE, 2012).

One test concerns the target recombinant LstiGOBP2 (Loxostege sticticalis, UniProt C6ZDA6). In words: biochemical. Type of test: binding. The note with it: for binding to LstiGOBP2 (in words): competitive displacement of 1-NPN. The protocol: Fluorescence spectra were recorded in a right angle configuration on a Lengguang 970 CRT spectrofluorimeter (Shanghai Jingmi, China) at room temperature using a 1-cm light path fluorimeter quartz cuvette. Slit widths of 10 nm were selected for both excitation and emission. The spectra data were processed using 970 CRT 2.0l software.
N-phenyl-1-naphthylamine (1-NPN) was dissolved in methanol to yield a 1 mM stock solution. […] 1-NPN was excited at 337 nm and emission spectra were recorded between 350 and 600 nm. Spectra were recorded with high-speed scanning. All ligands used in competition experiments were dissolved in spectrophotometric-grade methanol. Binding data were collected in three independent measurements.
Bound ligand was evaluated from the values of fluorescence intensity assuming that the protein was 100% active, with a stoichiometry of 1∶1 (protein∶ligand) at saturation. The K1-NPN values were estimated using Prism 5 (GraphPad Software, Inc.) by nonlinear regression for a unique site of binding. The curves were linearized using Scatchard plots.

The test system of a further test is L. sticticalis antennae. In words: Electroantennogram (EAG) recording. The conditions noted are these: for EAG response (in words) / EAG depolarization: 10 mg/ml in hexane; for EAG response (in words): adult antennae; for EAG depolarization: highest EAG responses. On the set-up: species or system Loxostege sticticalis. Here is the method:
Antennae of adult moths were excised at the base and immediately placed on an EAG Micromanipulator MP-15 (Syntech) platform for EAG. Antennae were attached to two electrode holders with non-drying clay (Spectra 360 Electrode Gel). […] Pure chemicals were diluted with hexane to a final concentration of 10 mg/ml. EAG signals were amplified, monitored, and analyzed with EAG-Pro software (Syntech). The preparation was held in a humidified air stream delivered by a Syntech stimulus controller (CS-55 model; Syntech) at 500 ml/min, to which a stimulus pulse of 40 ml/min was added for […]. Signals were recorded for 10 sec, beginning at 2 sec before the onset of the stimulus pulse. An aliquot (10 µl) of each stimulus was loaded onto a filter paper strip. After each sample was tested, hexane was tested as a control. EAG responses of at least three antennae were recorded.

For a further test, the system named is LstiGOBP1. On the set-up: method as in earlier work. The conditions noted are these: cited from earlier work.
Where [1] appears, read: calculated from IC50: Ki = [IC50]/1+[1-NPN]/K1-NPN, read-out: Ki (relative dissociation constant).
[2] abbreviates: read-out: Int (fluorescence intensity as percent of the initial fluorescence).
Where [3] appears, read: at ligand concentration 20 µM, protein 2 µM, 1-NPN probe, read-out: Int (fluorescence intensity as percent of the initial fluorescence).
Setting [4] is: protein 2 µM, 1-NPN probe, ligand titrated to 2–50 µM in methanol, read-out: IC50 (concentration of ligand halving the initial fluorescence intensity).
Setting [5] is: IC50 (concentration of ligand halving the initial fluorescence intensity), protein 2 µM, 1-NPN probe, ligand titrated to 2–50 µM in methanol.
Where [6] appears, read: Ki (relative dissociation constant), calculated from IC50: Ki = [IC50]/1+[1-NPN]/K1-NPN.
Setting [7] is: read-out: Int (fluorescence intensity as percent of the initial fluorescence), at ligand concentration 20 µM, protein 2 µM, 1-NPN probe.

“Also recorded” adds a separate entry of the source. Like-named read-outs stand apart in the source and are kept apart here.

Sequence of recombinant LstiGOBP2 (C6ZDA6 entry or part of it): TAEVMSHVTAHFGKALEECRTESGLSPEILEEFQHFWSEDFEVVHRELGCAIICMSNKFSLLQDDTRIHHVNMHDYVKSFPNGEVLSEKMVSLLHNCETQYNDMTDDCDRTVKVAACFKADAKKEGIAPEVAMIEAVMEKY

In the case of `CC12CCC(CC1=O)C2(C)C` (stereo not drawn) [Camphor], the IC50 on recombinant LstiGOBP2 turned out to be 14 µM. Moreover, the inhibition constant Ki on recombinant LstiGOBP2 (setting [1]) is 8.2 µM. On recombinant LstiGOBP2 (setting [2]), the activity at 20 µM is 41%.

`CCCCCCO` [1-Hexanol]: the IC50 on recombinant LstiGOBP2 amounted to 11 µM. Moreover, on recombinant LstiGOBP2 (setting [1]), the Ki is 6.5 µM. Also, the activity at 20 µM at recombinant LstiGOBP2 (setting [2]) came to 42%.

In the case of `C=CC(C)(O)CCC=C(C)C` (single isomer, unassigned; (-)) [(-)-Linalool], on recombinant LstiGOBP2, the IC50 was determined as 28 µM and the Ki was 16.5 µM. At recombinant LstiGOBP2 (setting [3]), the activity at 20 µM stood at 53%.

Regarding `CCCCCCCCC=O` [1-Nonanal], the activity at 20 µM at recombinant LstiGOBP2 (setting [3]) is 66%. For the same molecule, the Ki at recombinant LstiGOBP2 (setting [1]) was 22.9 µM. Also, on recombinant LstiGOBP2, the “binding to LstiGOBP2 (in words)” value is “very weak binding affinity”. For the same molecule, at recombinant LstiGOBP2 (setting [4]), the IC50 stood at 39 µM.

As for `CC/C=C/CCCCCCCCCCOC(C)=O` [Trans-11-tetradecen-1-yl acetate], the “EAG response of the male antennae (in words)” value in the test with L. sticticalis antennae (male antennae, 10 mg/ml) is “highest among all the volatiles tested”. In addition, the “EAG response difference between males and females” value in the test with L. sticticalis antennae (male vs female antennae) is reported as “significantly different”. Besides, at recombinant LstiGOBP2 (setting [3]), the activity at 20 µM worked out at 48%. The Ki at recombinant LstiGOBP2 (setting [1]) is 10.6 µM. The “binding to LstiGOBP2 (in words)” value on recombinant LstiGOBP2 is “bind strongly; also recorded: high binding affinity”. At recombinant LstiGOBP2 (setting [4]), the IC50 is 18 µM.

Regarding `CC(C)=CCC/C(C)=C/CO` [Geraniol], the IC50 at recombinant LstiGOBP2 (setting [5]) amounted to 22 µM. Further, the Ki at recombinant LstiGOBP2 (setting [6]) is 12.9 µM. The activity at 20 µM on recombinant LstiGOBP2 (setting [7]) turned out to be 54%.

In the case of `CCCCCCCCCCCCCCC` [Pentadecane], the “binding to LstiGOBP1 (in words)” value in the test with LstiGOBP1 is “bind”.

As for `c1ccc(Nc2cccc3ccccc23)cc1` [1-NPN, N-phenyl-1-naphthylamine, reference compound], the Kd on recombinant LstiGOBP2 was roughly 1.44 µM.

As to `CC1=CC[C@H](C(C)C)C=C1` [α-Phellandrene], the “EAG response (in words)” value with L. sticticalis antennae is reported as “strong responses”. Besides, the “binding to LstiGOBP2 (in words)” value at recombinant LstiGOBP2 is “do not show affinities”. For the same molecule, the “binding to LstiGOBP1 (in words)” value in the test on LstiGOBP1 is “do not show affinities”.

On to `CCCCCCCC=O` [1-Octanal], for which the EAG depolarization in the test with L. sticticalis antennae is reported as −1.6 mV. For the same molecule, the activity at 20 µM at recombinant LstiGOBP2 (setting [3]) is 52%. Moreover, on recombinant LstiGOBP2 (setting [1]), the Ki was 14.1 µM. Also, the IC50 at recombinant LstiGOBP2 (setting [4]) was found to be 24 µM.

For the molecule `CCC/C=C/CO` [Trans-2-hexen-1-ol], the “EAG response (in words)” value in the test on L. sticticalis antennae is on record as “intensive responses”; in the test on L. sticticalis antennae (listed as E-2-hexeno1) it was “strong responses”. For the same molecule, in the test on LstiGOBP1, the “binding to LstiGOBP1 (in words)” value is “present an affinity”.

As for `CC(=O)/C=C/C1=C(C)CCCC1(C)C` [β-ionone], the “EAG response (in words)” value in the test with L. sticticalis antennae is recorded as “weak effects; also recorded: failed to elicit a strong electrophysiological response”. Also, the IC50 on recombinant LstiGOBP2 (setting [5]) stood at 11 µM. For the same molecule, the Ki at recombinant LstiGOBP2 (setting [6]) is 6.5 µM. In addition, the “binding to LstiGOBP2 (in words)” value on recombinant LstiGOBP2 is on record as “strongest affinities”. Moreover, the activity at 20 µM on recombinant LstiGOBP2 (setting [7]) is 37%.

Consider `CCCCCCCO` [1-Heptanol], for which the EAG depolarization in the test on L. sticticalis antennae is reported as −1.6 mV. Besides, the IC50 on recombinant LstiGOBP2 was determined as 10.5 µM. At recombinant LstiGOBP2 (setting [1]), the Ki was 6.2 µM. The activity at 20 µM at recombinant LstiGOBP2 (setting [2]) is 40%.

Take `CCC/C=C/COC(C)=O` [Trans-2-hexenyl acetate]: the activity at 20 µM on recombinant LstiGOBP2 (setting [3]) came out at 59%. For the same molecule, the Ki on recombinant LstiGOBP2 (setting [1]) is 16.5 µM. The IC50 at recombinant LstiGOBP2 (setting [4]) was determined as 28 µM.

As for `CCCCC=O` [1-Pentanal], on recombinant LstiGOBP2 (setting [3]), the activity at 20 µM was 46%. Further, the Ki on recombinant LstiGOBP2 (setting [1]) was 8.2 µM. Further, at recombinant LstiGOBP2, the “binding to LstiGOBP2 (in words)” value was “high affinities”. On recombinant LstiGOBP2 (setting [4]), the IC50 was determined as 14 µM.

Turning to `O=CCc1ccccc1` [Phenyl acetaldchyde], the “Int (fluorescence intensity as percent of the initial fluorescence)” value on recombinant LstiGOBP2 (at ligand concentration 20 µM, protein 2 µM, 1-NPN probe) was 50%. Besides, the Ki at recombinant LstiGOBP2 (setting [1]) is 11.8 µM. Moreover, the IC50 on recombinant LstiGOBP2 (setting [4]) was 20 µM.

On to `C=C1CC/C=C(\C)CC[C@@H]2[C@@H]1CC2(C)C` [(-)-Trans-caryophyllene], for which, on recombinant LstiGOBP2, the IC50 was greater than 50 µM and the “binding to LstiGOBP2 (in words)” value is “very weak binding affinity”. Moreover, the activity at 20 µM on recombinant LstiGOBP2 (setting [2]) is 86%.

For `CC/C=C\CCO` [Cis-3-hexen-1-ol], in the test with L. sticticalis antennae, the “EAG response (in words)” value is “high EAG response”. In addition, at recombinant LstiGOBP2, the IC50 was 19 µM, the Ki was 11.2 µM and the “binding to LstiGOBP2 (in words)” value is “high binding affinities”. In addition, the activity at 20 µM at recombinant LstiGOBP2 (setting [2]) was 49%.

Turning to `CC(C)(C)c1ccc(O)c(C(C)(C)C)c1` [2,4-Di-tert-butylphenol], in the test on L. sticticalis antennae, the “EAG response (in words)” value is “weak effects; also recorded: weak response”. Moreover, at recombinant LstiGOBP2, the IC50 worked out at 20 µM, the Ki turned out to be 11.8 µM and the “binding to LstiGOBP2 (in words)” value was “high affinity”. In addition, the activity at 20 µM at recombinant LstiGOBP2 (setting [2]) turned out to be 50%.
